Measurements published in US10821152B2, “Methods, agents and compositions for treatment of inflammatory conditions” (Betanien Hospital, priority 2014, dated 2020).
Non-standard residues stand in square brackets, D forms with d. Residues, ends and D or L forms follow the SMILES beside them. *: point of attachment. dPhe(4-NHCONH2) = NC(=O)Nc1ccc(C[C@@H](N)C(=O)O)cc1; Dihydroorotyl(S) = O=C1C[C@@H](C(=O)*)NC(=O)N1; dPhe(4-Cl) = N[C@H](Cc1ccc(Cl)cc1)C(=O)O; Phe(4-NH2) = Nc1ccc(C[C@H](N)C(=O)O)cc1; d2Nal = N[C@H](Cc1ccc2ccccc2c1)C(=O)O; Lys(iPr) = CC(C)NCCCC[C@H](N)C(=O)O; d3Pal = N[C@H](Cc1cccnc1)C(=O)O

What was measured:
[1] = tested on: patient with multiple sclerosis; test: Treatment of progressive multiple sclerosis with Degarelix, with concomitant Famprydine; type: in vivo, human; settings: MS patient
Experimental: • person, diagnosed with multiple sclerosis (MS). Their MS was of the progressive type; characterized by a steady deterioration in function. • Fulfilled the 2010 McDonald Criteria for the diagnosis of MS 1. Experimental Treatment • So far results of clinical trials for progressive MS have generally been disappointing. Currently, there is no FDA approved treatment for progressive MS disease. • December 2014 received first dose of Degarelix 240 mg sc. • Received Degarelix 80 mg s.c every two weeks thereafter. Difficulties in Assessing Response in Progressive MS • Almost all trials in progressive MS show a worsening in function over time. The primary endpoint of these trials is usually to be able to show less worsening in the active treatment group compared to the placebo/other treatment group. Worsening is often defined as an increase in the Expanded Disability Status Scale (EDSS). EDSS is severely restrictive as an outcome measure for trials in progressive sclerosis.^2 Trials have not shown improvements in the EDSS or function in MS patients.^2 Optimal outcome measures in progressive MS are open to debate. • Effective imaging outcomes in clinical trials have allowed for the development of treatments for the relapsing-remitting type of MS. […] One of the most important factors in choosing outcome measures for these patients is the meaningfulness to patients. Assessment of Response at 6 Weeks
This was particularly evident in their ability to raise their feet onto a step, physiotherapy exercises, and dressing. In the past year, they previously had always required their spouse's help to climb a step at home, or to carry out certain lower limb exercises with their physiotherapist. By 4 weeks of GnRH antagonist treatment, they no longer required their spouse's help/physiotherapist's help to perform these activities. They climbed onto a step unaided at […] checkup. The improvement started at around 4 weeks after the initiation of therapy, and continued to improve further by 6 weeks. Expanded Disability Status Scale (EDSS): • This patient's EDSS has remained stable at 6.5, as expected over such a short time period of 6 weeks. A score of 6.5 is equivalent to only being able to walk with the aid of a walker, as in their case. This was evident at baseline and 6 weeks. Multiple Sclerosis Impact Scale 29 (MSIS-29): • Patient-reported outcomes are of increasing importance in trials of progressive multiple sclerosis.^2The most frequently used global patient-reported outcome in multiple sclerosis is the MSIS-29.^3 This has been correlated with clinical and imaging metrics specifically in progressive forms of the disease.^4 According to a recent review,^2 patient reported outcomes in trials of progressive multiple sclerosis can be used to validate MRI or clinical metrics, and increased use of patient-reported outcomes in trials of progressive multiple sclerosis will expected to help satisfy regulators' requirements that treatments show relevant benefit for patients. • At baseline, they scored 121 on the MSIS-29. By 6 weeks, their score was reduced to 110. A clinically significant minimal difference is a score change of 8. Therefore this reduction of 11 in their score is considered clinically significant.^5 Multiple Sclerosis Walking Scale-12 (MSWS-12) • The MSWS-12^6 was designed as a disease-specific patient-based instrument for use in clinical trials and clinical practice, to capture the complex impact of MS on walking ability. […] One of the most important attributes of the MSWS-12 in comparison to other assessments of walking in MS patients, is its responsiveness to change. […] By 6 weeks, their score was reduced to 53. This is a 12% improvement. A minimal clinically significant difference has not yet been established. […]

[2] = tested on: patient with systemic lupus erythematosus; test: Treatment of lupus patient with degarelix; type: in vivo, human
From the text: The patient has a medical history of a multimorbid patient. Systemic lupus erythematosus (SLE) was diagnosed in 1988 based on Raynauds, skin changes, arthralgia, high titre lupus anticoagulant, ANA, SSA, and SSB. Chilblain type changes in hands and feet (FIGS. 6-8). […] The patient suffered cardiac arrest in 2012, coronary stenosis was observed. The patient had kidney failure since 2012, required dialysis, stabilized creatinine around 150, osteoporosis, COPD, and is a smoker.
By September 2014, we had no treatment options left. Therefore, we decided to offer […] degarelix. GnRH antagonists have shown anti-inflammatory effects and therefore we considered that degarelix, a depot GnRH antagonist, may have a therapeutic effect in lupus. • Sep. 15, 2014, […] received […] loading dose of degarelix, 240 mg sc. Assessment of Response
Proteinuria decline is linked to improved lupus nephritis outcomes. Korbet et al studied 61 patients in a controlled trial comparing standard therapy with plasmapheresis for severe lupus nephritis. […] They had constant, increasing proteinuria in 2014.

SMILES: CC(=O)N[C@H](Cc1ccc2ccccc2c1)C(=O)N[C@H](Cc1ccc(Cl)cc1)C(=O)N[C@H](Cc1cccnc1)C(=O)N[C@@H](CO)C(=O)N[C@@H](Cc1ccc(NC(=O)[C@@H]2CC(=O)NC(=O)N2)cc1)C(=O)N[C@H](Cc1ccc(NC(N)=O)cc1)C(=O)N[C@@H](CC(C)C)C(=O)N[C@@H](CCCCNC(C)C)C(=O)N1CCC[C@H]1C(=O)N[C@H](C)C(N)=O [Degarelix] (Ac-[d2Nal][dPhe(4-Cl)][d3Pal]S[Phe(4-NH2)](Dihydroorotyl(S))[dPhe(4-NHCONH2)]L[Lys(iPr)]P[dA]-NH2)
- timed walk ([1]; 29 Apr. 2015, after discontinuing Famprydine on 5 Apr. 2015): 14.0 s
- MFIS-5 ([1]; baseline): 20
- MSIS-29 ([1]; baseline): 121
- MSWS-12 ([1]; baseline): 60
- Expanded Disability Status Scale (EDSS) ([1]; baseline and 6 weeks): 6.5
- Timed 25 Foot Walk (T25FW) ([1]; baseline, stable Famprydine): 16.7 s
- timed walk ([1]; by 2 months, with Famprydine): 14.0 s
- timed walk ([1]; by 4 months, with Famprydine): 11.9 s
- timed walk ([1]; by 5 months (30 Mar. 2015), with Famprydine): 11.8 s
- MFIS-5 ([1]; by 6 weeks): 12
- MFIS-5 reduction ([1]; by 6 weeks): 40%
- MSIS-29 ([1]; by 6 weeks): 110
- MSWS-12 ([1]; by 6 weeks): 53
- MSWS-12 improvement ([1]; by 6 weeks): 12%
- MSIS-29 score reduction ([1]; by 6 weeks, clinically significant minimal difference 8): 11
- General function (patient reported) ([1]; from around 4 weeks to 6 weeks): a general improvement in their function
- ANA (<1) ([2]; 07.11.14): 26↑
- FSH (<12) ([2]; 07.11.14): <0.1
- LH (<12) ([2]; 07.11.14): <0.3
- Total urinary protein ([2]; 07.11.14): 0.17 g/L
- ANA (<1) ([2]; 14.10.14): 28↑
- FSH (<12) ([2]; 14.10.14): <0.1
- Total urinary protein ([2]; 14.10.14): 0.15^2 g/L
- FSH (<12) ([2]; 15.09.14 (day of loading dose)): 14↑
- LH (<12) ([2]; 15.09.14 (day of loading dose)): 11
- Total urinary protein ([2]; 15.09.14 (day of loading dose)): 0.78↑ g/L
- ANA (<1) ([2]; 15.09.14 (day of loading dose), out of range): >32↑
- FSH (<12) ([2]; 23.09.14): 2
- LH (<12) ([2]; 23.09.14): <0.3
- Total urinary protein ([2]; 23.09.14): 0.75↑ g/L
- proteinuria ([2]; at 2 months): in remission
- morning pain ([2]; before treatment): 3.5 h
- proteinuria ([2]; by 1 month): complete remission
- morning pain ([2]; by 8 weeks): 0 h
- morning pain ([2]; by day 5): 1.5 h
- morning pain ([2]; by day 10): 0 h
- ulcers on hands and feet ([2]; by day 10 of treatment): several ulcers had healed
- ANA (<1) ([2]; column 23.09.14 (25.09.14)): 31↑
